Experiments:
Experiment in all cases: relative viability (nuclei count vs DMSO), 5 days (fraction); higher = more cells survive
[1] = compound: CC(C)C[C@H](NC(=O)[C@H](Cc1ccccc1)NC(=O)c1cnccn1)B(O)O [Bortezomib] + C[C@@H](Oc1cc(-c2cnn(C3CCNCC3)c2)cnc1N)c1c(Cl)ccc(F)c1Cl [Crizotinib] (partner 1 µM)
Method in brief: (§1)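 Lung cancer cell lines in 1536-well plates were dosed by pin tool the day after seeding, either with one drug alone or with a fixed anchor-drug dose plus five library-drug doses (not always all listed) in √10 steps. After 5 days, cells were fixed and their nuclei stained in one step (final 0.05% Triton X-100, 1% formaldehyde, 1 ug/ml Hoechst), then counted on 4× images. Relative viability is the nuclei count in treated wells divided by that in vehicle wells. Values are medians of duplicate plates.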

[2] = compound: CC1=CC(=NN1)NC2=CC(=NC(=N2)/C=C/C3=CC=CC=C3)N4CCN(CC4)C + Nc1ncn([C@H]2C[C@H](O)[C@@H](CO)O2)c(=O)n1 [Decitabine] (partner 2 µM)
Method in brief: as §1

[3] = compound: COC1=CC(c2cc3ccccc3[nH]2)=N/C1=C\c1[nH]c(C)cc1C [Obatoclax] + CC(C)C[C@H](NC(=O)[C@H](Cc1ccccc1)NC(=O)c1cnccn1)B(O)O [Bortezomib] (partner 0.002 µM)
Method in brief: as §1

[4] = compound: COC1=CC(c2cc3ccccc3[nH]2)=N/C1=C\c1[nH]c(C)cc1C [Obatoclax] + Cc1cc(Nc2cc(N3CCN(C)CC3)nc(Sc3ccc(NC(=O)C4CC4)cc3)n2)n[nH]1 [Tozasertib] (partner 0.1 µM)
Method in brief: as §1

| Cell Line | relative viability ([1]; first compound 0.0002 µM) | relative viability ([1]; first compound 0.000632 µM) | relative viability ([1]; first compound 0.002 µM) | relative viability ([1]; first compound 0.006325 µM) | relative viability ([1]; first compound 0.02 µM) | relative viability ([2]; first compound 0.08 µM) | relative viability ([2]; first compound 0.253 µM) | relative viability ([2]; first compound 0.8 µM) | relative viability ([2]; first compound 2.53 µM) | relative viability ([2]; first compound 8 µM) | relative viability ([3]; first compound 0.01 µM) | relative viability ([3]; first compound 0.03162 µM) | relative viability ([3]; first compound 0.1 µM) | relative viability ([3]; first compound 0.3162 µM) | relative viability ([3]; first compound 1 µM) | relative viability ([4]; first compound 0.01 µM) | relative viability ([4]; first compound 0.03162 µM) | relative viability ([4]; first compound 0.1 µM) | relative viability ([4]; first compound 0.3162 µM) | relative viability ([4]; first compound 1 µM) |
| --- | --- | --- | --- | --- | --- | --- | --- | --- | --- | --- | --- | --- | --- | --- | --- | --- | --- | --- | --- | --- |
| COR-L23 | 0.669 | 0.581 | 0.595 | 0.0447 | 0.0472 | 0.511 | 0.451 | 0.392 | 0.125 | 0.113 | 0.962 | 1 | 0.961 | 0.461 | 0.187 | 0.233 | 0.182 | 0.217 | 0.111 | 0.108 |
| NCI-H2023 | 0.606 | 0.718 | 0.598 | 0.146 | 0.0674 | 0.22 | 0.221 | 0.231 | 0.0739 | 0.0699 | 1.03 | 1.08 | 0.808 | 0.675 | 0.425 | 0.365 | 0.354 | 0.297 | 0.145 | 0.151 |
| A-427 | 0.867 | 0.859 | 0.866 | 0.521 | 0.0943 | 0.603 | 0.582 | 0.568 | 0.489 | 0.213 | 1.02 | 0.966 | 1.01 | 1.01 | 0.944 | 0.164 | 0.24 | 0.243 | 0.212 | 0.191 |
| UMC-11 | 0.503 | 0.63 | 0.591 | 0.225 | 0.0917 | 0.722 | 0.609 | 0.562 | 0.282 | 0.209 | 0.645 | 0.428 | 0.689 | 0.743 | 0.265 | 0.202 | 0.197 | 0.234 | 0.249 | 0.22 |
| NCI-H596 | 0.98 | 0.957 | 1.02 | 0.224 | 0.182 | 1.17 | 1.01 | 0.889 | 0.659 | 0.364 | 1.12 | 0.974 | 0.812 | 0.696 | 0.674 | 0.911 | 0.915 | 0.837 | 0.564 | 0.597 |
| LU99A | 0.592 | – | 0.561 | 0.274 | 0.153 | 0.86 | 0.892 | 0.73 | 0.409 | 0.214 | 1.12 | 1.13 | 1.03 | 0.357 | 0.224 | 0.304 | 0.28 | 0.287 | 0.288 | 0.233 |
| NCI-H2009 | 0.992 | 1.06 | 0.956 | 0.329 | 0.0389 | 0.357 | 0.377 | 0.444 | 0.282 | 0.151 | 1.01 | 1.12 | 0.764 | 0.395 | 0.203 | 0.771 | 0.824 | 0.703 | 0.291 | 0.255 |

— the supplement of paper PMC10307832
